Results taken from patent publication US20130267558A1, “PHARMACEUTICAL COMPOSITION FOR TREATING OR PREVENTING ALCOHOLIC LIVER DISEASES, CONTAINING CILOSTAZOL AS ACTIVE INGREDIENT” (INDUSTRY-ACADEMIC COOPERATION FOUNDATION YEUNGNAM UNIVERSITY, priority 2010, published 2013).

Columns and labels:
caspase-3 [1] = assay: Caspase-3 colorimetric activity assay kit (DEVD-pNA) in ethanol-treated liver cells; type: cell-based, Sprague-Dawley rats or C57BL/6 mouse; conditions: liver cells pretreated, FIG. 3
Experimental: (§1) Liver cells were separated from Sprague-Dawley rats (8 to 10 weeks) or C57BL/6 (8 to 10 weeks) mouse via in situ collagenase perfusion, and then cultured in DMEM containing 10% FBS, 100 U/ml penicillin, 100 μg/ml streptomycin, 4 mM L-glutamine, and 100 nM dexamethasone. After 3 hours, the culture solution was replaced with DMEM including 0.1% FBS and 10 nM dexamethasone, and then, cultured for 16 hours (overnight). For the treatment, the cells were treated with various concentrations of ethanol (0, 100, 200 mM) alone or together with cilostazol (Otsuka) or pentoxifylline which is used as a therapeutic agent for alcoholic hepatitis, and the resultant cell reactions were compared with each other. After the treatment with ethanol, a culture dish was sealed with a parafilm to prevent evaporation of ethanol. Also, the caspase-3 activity was measured by using an activity assay kit (R&D kit). That is, caspase-3 activity was measured by using a caspase-3 colorimetric assay kit (R&D system, Minneapolis, Minn.). Liver cells were lysed by using lysis buffer, and then the protein (150 μg) was incubated with DEVD-pNA, a caspase-3 substrate at 37° C. for 2 hours, and then absorption of the product was measured at a wavelength of 405 nm.

caspase-3 [2] = assay: Caspase-3 activity by Western blotting with cleaved caspase-3 antibody in ethanol-treated liver cells; type: cell-based, Sprague-Dawley rats or C57BL/6 mouse; conditions: pretreatment 100 μM; ethanol 24 hours; FIG. 2
Experimental: as §1, with “ethanol.” for “ethanol. Also, the caspase-3 activity was measured by using an activity assay kit (R&D kit). That is, caspase-3 activity was measured by using a caspase-3 colorimetric assay kit (R&D system, Minneapolis, Minn.). Liver cells were lysed by using lysis buffer, and then the protein (150 μg) was incubated with DEVD-pNA, a caspase-3 substrate at 37° C. for 2 hours, and then absorption of the product was measured at a wavelength of 405 nm.”

TNF-α = assay: LPS-stimulated TNF-α production in RAW264.7 macrophage (ELISA); type: cell-based; conditions: pretreatment, LPS 50 ng/ml, 4 hours, FIG. 5
Experimental: RAW264.7 cells were obtained from Korean Cell Line Bank and cultured in a DMEM solution containing 10% FBS, 100 U/ml penicillin, and 100 μg/ml streptomycin for use in experiments. To compare direct effects of ethanol with indirect effects caused by endotoxin, effects of LPS were identified. RAW264.7 macrophage prepared as described above was treated with LPS (50 ng/ml) for 4 hours, and then, TNF-α level in the cell culture was measured by using ELISA kit (R&D).

[3] = test system: primary cultured liver cells; assay: MTS assay, viability of primary cultured liver cells treated with ethanol; type: cell-based, Sprague-Dawley rats or C57BL/6 mouse; conditions: pretreatment 100 μM; ethanol 100, 200 mM for 24 hour; vs DMSO group; FIG. 1
Experimental: Liver cells were separated from Sprague-Dawley rats (8 to 10 weeks) or C57BL/6 (8 to 10 weeks) mouse via in situ collagenase perfusion, and then cultured in DMEM containing 10% FBS, 100 U/ml penicillin, 100 μg/ml streptomycin, 4 mM L-glutamine, and 100 nM dexamethasone. After 3 hours, the culture solution was replaced with DMEM including 0.1% FBS and 10 nM dexamethasone, and then, cultured for 16 hours (overnight). For the treatment, the cells were treated with various concentrations of ethanol (0, 100, 200 mM) alone or together with cilostazol (Otsuka) or pentoxifylline which is used as a therapeutic agent for alcoholic hepatitis, and the resultant cell reactions were compared with each other. After the treatment with ethanol, a culture dish was sealed with a parafilm to prevent evaporation of ethanol. MTS assay was performed in the following manner to identify effects of cilostazol on decreased liver cell viability caused by ethanol. That is, the viability of liver cells was measured by using a MTS assay kit (Promega, Madison, Wis., USA). […] An MTS solution were added to the respective wells and then, the cells were incubated at 37° C. for 4 hours, and absorption of the result was measured at a wavelength of 490 nm.

caspase-3 [4] = assay: Liver caspase-3 activity in alcohol-induced acute liver injury animal model; type: in vivo; conditions: mice; oral 100 mg/kg for 4 days before ethanol 6 g/kg oral; FIG. 9
Experimental: Also, the caspase-3 activity was measured by using an activity assay kit (R&D kit). That is, caspase-3 activity was measured by using a caspase-3 colorimetric assay kit (R&D system, Minneapolis, Minn.). Liver cells were lysed by using lysis buffer, and then the protein (150 μg) was incubated with DEVD-pNA, a caspase-3 substrate at 37° C. for 2 hours, and then absorption of the product was measured at a wavelength of 405 nm.

RAW264.7 macrophage = assay: LPS-induced ROS production in RAW264.7 macrophage (H2DCFDA, FACS); type: cell-based; conditions: pretreatment 100 μM for 1 hour; LPS 50 ng/ml, 4 hours; FIG. 7
Experimental: RAW264.7 cells were obtained from Korean Cell Line Bank and cultured in a DMEM solution containing 10% FBS, 100 U/ml penicillin, and 100 μg/ml streptomycin for use in experiments. To compare direct effects of ethanol with indirect effects caused by endotoxin, effects of LPS were identified. RAW264.7 macrophage prepared as described above was treated with LPS (50 ng/ml) for 0 to 18 hours. Separately, RAW264.7 macrophage prepared as described above was pretreated with cilostazol (100 μM) or pentoxifylline (100 μM) for 1 hour and then, treated with LPS (50 ng/ml) for 4 hours. The RAW264.7 macrophages were treated with H2DCFDA (50 μM) for 40 minutes, and then, the production of ROS was evaluated by using FACS.

[5] = test system: FAS (fatty acid synthase) gene; assay: Liver FAS gene expression (real-time PCR) in alcohol-induced acute liver injury animal model; type: in vivo; conditions: mice; oral 100 mg/kg for 4 days before ethanol 6 g/kg oral; FAS mRNA normalized to β-actin; FIG. 11
Experimental: Eight-week old mice were subjected to binge alcohol drinking to induce liver damage. That is, mice were administered orally 6 g/kg of ethanol once. Cilostazol was orally administered in doses of 50 mg/kg/day and 100 mg/kg/day for 4 days before ethanol administration, and ethanol was orally administered 1 h after the last cilostazol administration. Then, animals were sacrificed at different time after ethanol administration.
Effects of cilostazol on the expression of FAS gene were identified by real-time PCR assay. That is, total RNA was extracted from liver tissues by using a trizol reagent, and then 1 μg of total RNA was reverse-transcribed into cDNA by using high-performance cDNA reverse transcription kit (Applied Biosystems, Foster City, Calif., USA). The PCR reaction was performed such that cDNA, the respective primers were reacted with power SYBR Green PCR master mix (Applied Biosystems) by using real-time PCR 7500 software system (Applied Biosystem). The PCR conditions were initial incubation at 95° C. for 10 minutes, followed by 45 cycles of 95° C. for 15 seconds, 55° C. for 20 seconds, and 72° C. for 35 seconds.
FAS mRNA level was normalized to β-actin mRNA level, and shown in fold increase.

[6] = test system: primary cultured liver cells; assay: Hoechst staining of liver cell apoptosis caused by ethanol; type: cell-based, Sprague-Dawley rats or C57BL/6 mouse; conditions: pretreatment; Hoechst 33342; FIG. 4
Experimental: Liver cells were separated from Sprague-Dawley rats (8 to 10 weeks) or C57BL/6 (8 to 10 weeks) mouse via in situ collagenase perfusion, and then cultured in DMEM containing 10% FBS, 100 U/ml penicillin, 100 μg/ml streptomycin, 4 mM L-glutamine, and 100 nM dexamethasone. After 3 hours, the culture solution was replaced with DMEM including 0.1% FBS and 10 nM dexamethasone, and then, cultured for 16 hours (overnight).
For the treatment, the cells were treated with various concentrations of ethanol (0, 100, 200 mM) alone or together with cilostazol (Otsuka) or pentoxifylline which is used as a therapeutic agent for alcoholic hepatitis, and the resultant cell reactions were compared with each other. After the treatment with ethanol, a culture dish was sealed with a parafilm to prevent evaporation of ethanol.

Row | Compound | caspase-3 activity (activity assay kit) increased by ethanol, effect of pretreatment (caspase-3 [1]) | caspase-3 activity (cleaved caspase-3, Western blot) increased by ethanol, effect of pretreatment (caspase-3 [2]) | decrease of LPS-increased TNF-α level in culture media (TNF-α; p=0.016) [%] | liver cell viability decreased by ethanol, effect of pretreatment [3] | liver caspase-3 activity after ethanol administration (caspase-3 [4]) | production of ROS induced by LPS, effect of pretreatment (RAW264.7 macrophage) | reduction of liver FAS gene expression after ethanol administration [5] | nuclear fragmentation caused by ethanol [6] | inhibitory effect on LPS-increased TNF-α level in culture media (TNF-α)
1 | O=C1CCc2cc(OCCCCc3nnnn3C3CCCCC3)ccc2N1 [cilostazol] | almost completely inhibited | cilostazol showed better inhibitory effects than pentoxifylline | ~50 | significantly recovered | significantly reduced | neither cilostazol nor pentoxifylline significantly inhibited | about 30% | reduced | 
2 | CC(=O)CCCCn1c(=O)c2c(ncn2C)n(C)c1=O [pentoxifylline] | reduced caspase-3 activity caused by ethanol, but the inhibitory effect of pentoxifylline was smaller than that of cilostazol | reduced |  | did not significantly improve the cell viability |  | neither cilostazol nor pentoxifylline significantly inhibited |  |  | did not show significant inhibitory effects
